Earlier results as cited in patent US20240352056A1, “Improved methods for production of cyclic guanosine-monophosphate analogues” (Mireca Medicines GmbH, priority 2021, published 2024).

Key:
[1] = test system: photoreceptors
[2] = test system: PKG
[3] = test system: cGMP-dependent protein kinase
[4] = test system: cAMP-dependent protein kinase
[5] = test system: rd1 and rd2 photoreceptors; details: rd1 and rd2 mouse retinitis pigmentosa models, in vitro and in vivo

O=c1c2nc(Br)n([C@@H]3O[C@@H]4CO[P@@](O)(=S)O[C@H]4[C@H]3O)c2nc2[nH]c(-c3ccccc3)cn12 [1a, Triethylammonium Rp-8-Bromo-β-phenyl-1,N2-ethenoguanosine-3′, 5′-cyclic monophosphorothioate]
neuroprotective effects in vivo [1]: potent neuroprotective effects in vivo | activity towards PKG (agonist or antagonist) [2]: antagonistic activity towards PKG

Nc1nc2c(nc(Cl)n2[C@@H]2O[C@@H]3CO[P@@](O)(=S)O[C@H]3[C@H]2O)c(=O)[nH]1 [(Rp)-8-Cl-cGMPS, 8-chloroguanosine 3′, 5′-monophosphorothioate]
antagonism of the activation of the cGMP-dependent protein kinase [3]: antagonized the activation of the cGMP-dependent protein kinase | binding to cGMP-dependent protein kinase and stimulation of its phosphotransferase activity [3]: bound to the enzyme without stimulation of its activity | selectivity for cGMP-dependent over cAMP-dependent protein kinase [3]: rather selective inhibitor of the cGMP-dependent protein kinase | antagonism / inhibition of cAMP-dependent protein kinase [4]: weak inhibitor

Nc1nc2c(nc(Cl)n2[C@@H]2O[C@@H]3CO[P@@](O)(=S)O[C@H]3[C@H]2O)c(=O)[nH]1 [(Sp)-8-Cl-cGMPS, 8-chloroguanosine 3′, 5′-monophosphorothioate]
binding to cGMP-dependent protein kinase and stimulation of its phosphotransferase activity [3]: stimulated its phosphotransferase activity

Nc1nc2c(nc(Br)n2[C@@H]2O[C@@H]3COP(O)(=S)O[C@H]3[C@H]2O)c(=O)[nH]1 (stereo partly drawn) [Rp-8-Br-cGMPS]
protection of photoreceptors [5]: protection of rd1 and rd2 photoreceptors

Nc1nc2c(ncn2[C@@H]2O[C@@H]3COP(O)(=S)O[C@H]3[C@H]2O)c(=O)[nH]1 (stereo partly drawn) [(Sp)-cGMPS, guanosine 3′, 5′-monophosphorothioate]
binding to cGMP-dependent protein kinase and stimulation of its phosphotransferase activity [3]: stimulated its phosphotransferase activity

Nc1nc2c(ncn2[C@@H]2O[C@@H]3COP(O)(=S)O[C@H]3[C@H]2O)c(=O)[nH]1 (stereo partly drawn) [(Rp)-cGMPS, guanosine 3′, 5′-monophosphorothioate]
antagonism of the activation of the cGMP-dependent protein kinase [3]: antagonized the activation of the cGMP-dependent protein kinase | binding to cGMP-dependent protein kinase and stimulation of its phosphotransferase activity [3]: bound to the enzyme without stimulation of its activity | antagonism / inhibition of cAMP-dependent protein kinase [4]: antagonized the activation of cAMP-dependent protein kinase
